Results: ChEMBL document CHEMBL1149577, “Rational design of 7-arylquinolines as non-competitive metabotropic glutamate receptor subtype 5 antagonists” (Bioorg Med Chem Lett, 2007)

Experiments:
[1] = biological target: T1, Metabotropic glutamate receptor 5 (Rattus norvegicus, UniProt P31424); test: Activity at rat mGlu5 receptor expressed in CHO cells assessed as inhibition of quisqualate-stimulated calcium mobilization by FLIPR assay; assay type: functional, cell-based
[2] = biological target: T1, Metabotropic glutamate receptor 5; test: Displacement of [3H]MPEP from mGlu5 receptor in rat brain; assay type: tissue-based
[3] = tested on: Rattus norvegicus; test: Anxiolytic activity in thirsty naive rat assessed as shock episodes at 10 mg/kg, po by Vogel assay relative to control; assay type: functional

T1 sequence (P31424 whole entry): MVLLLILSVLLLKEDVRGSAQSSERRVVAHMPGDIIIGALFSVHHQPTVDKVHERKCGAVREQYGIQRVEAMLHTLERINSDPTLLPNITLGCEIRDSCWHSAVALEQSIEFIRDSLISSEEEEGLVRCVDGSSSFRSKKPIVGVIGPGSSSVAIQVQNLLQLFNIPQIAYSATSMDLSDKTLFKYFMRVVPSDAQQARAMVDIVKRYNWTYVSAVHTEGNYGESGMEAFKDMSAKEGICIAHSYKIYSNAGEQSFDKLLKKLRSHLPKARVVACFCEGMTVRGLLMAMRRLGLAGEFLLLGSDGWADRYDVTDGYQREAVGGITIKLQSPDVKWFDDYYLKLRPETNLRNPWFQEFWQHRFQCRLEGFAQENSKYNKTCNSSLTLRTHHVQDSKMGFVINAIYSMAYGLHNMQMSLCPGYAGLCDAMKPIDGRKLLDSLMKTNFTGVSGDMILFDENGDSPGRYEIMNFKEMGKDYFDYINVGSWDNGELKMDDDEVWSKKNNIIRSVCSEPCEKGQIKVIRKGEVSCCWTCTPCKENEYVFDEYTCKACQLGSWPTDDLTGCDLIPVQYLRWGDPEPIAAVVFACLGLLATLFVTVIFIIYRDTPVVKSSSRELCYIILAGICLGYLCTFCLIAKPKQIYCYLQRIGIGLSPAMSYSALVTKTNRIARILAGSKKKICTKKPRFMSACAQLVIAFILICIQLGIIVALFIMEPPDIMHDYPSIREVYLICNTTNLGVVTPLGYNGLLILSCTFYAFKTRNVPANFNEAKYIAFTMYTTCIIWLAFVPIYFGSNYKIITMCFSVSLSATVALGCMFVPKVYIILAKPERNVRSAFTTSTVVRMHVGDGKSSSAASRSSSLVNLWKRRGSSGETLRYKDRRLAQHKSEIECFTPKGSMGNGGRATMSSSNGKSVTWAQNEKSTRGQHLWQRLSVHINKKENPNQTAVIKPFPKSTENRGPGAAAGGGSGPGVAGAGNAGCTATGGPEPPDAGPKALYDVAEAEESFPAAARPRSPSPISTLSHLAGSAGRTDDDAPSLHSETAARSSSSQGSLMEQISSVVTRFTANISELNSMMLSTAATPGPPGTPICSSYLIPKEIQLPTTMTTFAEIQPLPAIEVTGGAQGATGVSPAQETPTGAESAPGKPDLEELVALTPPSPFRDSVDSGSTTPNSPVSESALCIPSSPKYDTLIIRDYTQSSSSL

Row | IC50 [1] [nM] | Ki [2] [nM] | SMILES | Activity [3] [%]
1 | 510 |  | Cc1ccc2ccc(-c3cccnc3)cc2n1 | 
2 | 1800 |  | Cc1ccc2ccc(-c3cccc(F)c3)cc2n1 | 
3 | 3400 |  | Cc1cccc(-c2ccc3ccc(C)nc3c2)c1 | 
4 | 2 |  | Cc1ccc2ccc(-c3cc(C#N)cc(C#N)c3)cc2n1 | 
5 | 2 |  | COCc1cc(C#N)cc(-c2ccc3ccc(C)nc3c2)c1 | 
6 | 5800 |  | COCc1cccc(-c2ccc3ccc(C)nc3c2)c1 | 
7 | 8700 |  | Cc1ccc2ccc(-c3cccc(CO)c3)cc2n1 | 
8 | 14000 |  | Cc1ccc2ccc(-c3cccc(Cl)c3)cc2n1 | 
9 | 19000 |  | Cc1ccc2ccc(-c3cccc(O)c3)cc2n1 | 
10 | > 10000 |  | Cc1ccc2ccc(-c3cccc(C(N)=O)c3)cc2n1 | 
11 | 4200 |  | COc1ccccc1-c1ccc2ccc(C)nc2c1 | 
12 | > 10000 |  | Cc1ccc2ccc(-c3cccc(C(F)(F)F)c3)cc2n1 | 
13 | > 10000 |  | Cc1ccc2ccc(-c3ccc(C#N)cc3)cc2n1 | 
14 | 0.8 | 22 | Cc1ccc2ccc(-c3cc(F)cc(C#N)c3)cc2n1 | 100
15 | 1.6 |  | Cc1cc(C#N)cc(-c2ccc3ccc(C)nc3c2)c1 | 
16 | 17 |  | CCOc1cc(C#N)cc(-c2ccc3ccc(C)nc3c2)c1 | 
17 | 4760 |  | CC(=O)c1cccc(-c2ccc3ccc(C)nc3c2)c1 | 
18 | 2.4 |  | COc1cc(C#N)cc(-c2ccc3ccc(C)nc3c2)c1 | 

Row | IC50 [1] [nM] | Ki [2] [nM] | SMILES | Activity [3] [%]
19 | 23 |  | Cc1ccc2ccc(-c3cncc(C#N)c3)cc2n1 | 
20 | 72 |  | CCSc1cc(C#N)cc(-c2ccc3ccc(C)nc3c2)c1 | 
21 | 82 |  | COCCOc1cc(C#N)cc(-c2ccc3ccc(C)nc3c2)c1 | 
22 | 310 |  | Cc1ccc2ccc(-c3cc(C#N)cc(OC(C)C)c3)cc2n1 | 
23 | 360 |  | Cc1ccc2ccc(-c3cc(O)cc(C#N)c3)cc2n1 | 
24 | 1090 |  | CCS(=O)(=O)c1cc(C#N)cc(-c2ccc3ccc(C)nc3c2)c1 | 
25 | 9000 |  | Cc1ccc2ccc(-c3ccccc3)cc2n1 | 
26 | 7.7 | 72 | Cc1ccc2ccc(-c3cccc(C#N)c3)cc2n1 | 
27 | 430 |  | Cc1ccc2ccc(-c3cccc(CC#N)c3)cc2n1 | 
28 | 860 |  | COc1cccc(-c2ccc3ccc(C)nc3c2)c1 | 
29 | > 10000 |  | Cc1ccc2ccc(-c3cccc(OC(F)(F)F)c3)cc2n1 | 
30 | 16000 |  | COc1ccc(-c2ccc3ccc(C)nc3c2)cc1 | 
31 | 1.4 |  | Cc1ccc2ccc(-c3cc(Cl)cc(C#N)c3)cc2n1 | 
32 | 13 |  | Cc1ccc2ccc(-c3cc(Br)cc(C#N)c3)cc2n1 | 
33 | 75 |  | Cc1ccc2ccc(-c3cc(C#N)cc(OC(F)(F)F)c3)cc2n1 | 
34 | 12000 |  | Cc1ccc2ccc(-c3cc(C#N)cc(OCC(C)C)c3)cc2n1 | 
35 | 9800 |  | Cc1ccc2ccc(-c3ccccc3C#N)cc2n1 | 
36 |  |  | Cc1cccc(C#Cc2ccccc2)n1 | 80
